Literature values in US20210319872A1, “DRUG AND DEVICE COMBINATION PRODUCTS WITH IMPROVED SAFETY AND EFFICACY PROFILES” (priority 2016, published 2021).
Like-named read-outs stand apart in the source and are kept apart here.

[1] = subependymal giant cell astrocytoma

Cc1nnc2n1-c1ccc(Cl)cc1C(c1ccccc1)=NC2 [Xanax (alprazolam)]
Cognitive disorder (in vivo): Neurologic: Cognitive disorder (28.8%), Confusion (1.5% to | Confusion (in vivo): Neurologic: Cognitive disorder (28.8%), Confusion (1.5% to | Constipation (in vivo): Gastrointestinal: Constipation (8.1% to 26.2%), Reduced salivation | Decrease in appetite (in vivo): Endocrine metabolic: Decrease in appetite (7.3% to 27.8%), | Fatigue (in vivo): Other: Fatigue (13.9% to 48.6%) | Increased appetite (in vivo): Increased appetite (7% to 32.7%), Weight increase (2.7% to 27.2%) | Memory impairment (in vivo): 40.1%), Lightheadedness (20.8%), Memory impairment (15.4% to | Reduced libido (in vivo): Reproductive: Reduced libido (6% to 14.4%) | Reduced salivation (in vivo): (32.8%), Xerostomia (10.2% to 14.7%) | Sedated (in vivo): 33.1%), Sedated (45.2%), Somnolence (23% to 76.8%) | Serious side effect, Dermatologic (in vivo): Dermatologic: Stevens-Johnson syndrome | Somnolence (in vivo): 33.1%), Sedated (45.2%), Somnolence (23% to 76.8%) | Weight increase (in vivo): Increased appetite (7% to 32.7%), Weight increase (2.7% to 27.2%) | Xerostomia (in vivo): (32.8%), Xerostomia (10.2% to 14.7%)

CC(C)NCC(O)COc1ccc(COCCOC(C)C)cc1 (stereo not shown) [Bisoprolol (Zebeta)]
Diarrhea (in vivo): Gastrointestinal: Diarrhea (2.6% to 3.5%) | Fatigue (in vivo): Other: Fatigue (6.6% to 8.2%) | Headache (in vivo): Neurologic: Headache (8.8% to 10.9%) | Rhinitis (in vivo): Respiratory: Rhinitis (2.9% to 4%), Upper respiratory infection | Upper respiratory infection (in vivo): (4.8% to 5%.)

CO[C@H]1C[C@@H]2CC[C@@H](C)[C@@](O)(O2)C(=O)C(=O)N2CCCC[C@H]2C(=O)O[C@H]([C@H](C)C[C@@H]2CC[C@@H](OCCO)[C@H](OC)C2)CC(=O)[C@H](C)/C=C(\C)[C@@H](O)[C@@H](OC)C(=O)[C@H](C)C[C@H](C)/C=C/C=C/C=C/1C [Afinitor]
Pulmonary embolism (PNET): 2.5% | Angioedema (Transplant): Other: Angioedema (Transplant, up to 6.8%), Sepsis (tumors less | Hemolytic uremic syndrome (Transplant): Renal: Hemolytic uremic syndrome (Transplant, less than 1%), | Pericardial effusion (Transplant): Cardiovascular: Pericardial effusion (Transplant, less than 1%) | Thrombocytopenia, All grades (Transplant): ≤ 10% | Thrombotic microangiopathy (Transplant): < 1%), Thrombotic thrombocytopenic purpura (Transplant, less than | Thrombotic thrombocytopenic purpura (Transplant): < 1% | Hypoalbuminemia (breast cancer): Hypoalbuminemia (breast cancer, 33%), Hypophosphatemia | Interstitial lung disease (in vivo): Respiratory: Interstitial lung disease (Less than 1%), Non- | Non-infectious pneumonia (in vivo): ≤ 19% | Anemia, All grades (kidney transplant): transplant, 26%), Decreased lymphocyte count, all grades (tumors, | Constipation (kidney transplant): 38% | Cough (kidney transplant): 7% | Diarrhea (kidney transplant): kidney transplant, 19%; liver transplant, 19%), Nausea (tumors, | Dyslipidemia (kidney transplant): Endocrine metabolic: Dyslipidemia (kidney transplant, 15%), | Fatigue (kidney transplant): 9% | Fever (kidney transplant): 19% | Hypercholesterolemia (kidney transplant): 17% | Hyperlipidemia (kidney transplant): 21% | Hypertension (kidney transplant): 30% | Hypophosphatemia (kidney transplant): 13% | Impaired wound healing (kidney transplant): Immunologic: Impaired wound healing (kidney transplant, 35%; | Increased glucose level, All grades (kidney transplant): 12% | Infectious disease (kidney transplant): 62% | Leukopenia (kidney transplant): 3% | Nausea (kidney transplant): 29% | Peripheral edema (kidney transplant): 45% | Serum creatinine raised (kidney transplant): 18% | Stomatitis (kidney transplant): 8% | Upper respiratory infection (kidney transplant): transplant, 16%) | Urinary tract infectious disease (kidney transplant): 16%; kidney transplant, 22%) | Vomiting (kidney transplant): 15% | Serious side effect, Respiratory (listed without frequency): Pneumocystis pneumonia | Diarrhea (liver transplant): kidney transplant, 19%; liver transplant, 19%), Nausea (tumors, | Fever (liver transplant): transplant, 13%) | Hyperlipidemia (liver transplant): 24% | Hypertension (liver transplant): 17% | Impaired wound healing (liver transplant): liver transplant, 11%) | Infectious disease (liver transplant): 50% | Leukopenia (liver transplant): 12% | Nausea (liver transplant): 14% | Peripheral edema (liver transplant): 18% | Amenorrhea (renal angiomyolipoma): Reproductive: Amenorrhea (renal angiomyolipoma, 15%), | Menorrhagia (renal angiomyolipoma): angiomyolipoma, 10%) | Otitis media (renal angiomyolipoma): Otic: Otitis media (renal angiomyolipoma, 6%) | Seizure (renal angiomyolipoma): Neurologic: Seizure (renal angiomyolipoma, 5%) | Hemorrhage (renal cell carcinoma): 3% | Pneumonia (renal cell carcinoma): 6% | Renal failure (renal cell carcinoma): Renal failure (renal cell carcinoma, 3%), Thrombosis of renal | Mental disorder [1]: astrocytoma, 21%) | Partial thromboplastin time increased [1]: giant cell astrocytoma, 72%), Thrombocytopenia, All grades | Pleural effusion (tumors): 7% | Sepsis (tumors): < 1%

O=C1CCC(N2C(=O)c3ccccc3C2=O)C(=O)N1 (stereo not shown) [Thalomid]
Nausea (erythema nodosum leprosum): 4.2% | Rash (erythema nodosum leprosum): nodosum leprosum, 20.8%) | Tremor (erythema nodosum leprosum): Tremor (erythema nodosum leprosum, 4.2%; multiple myeloma, | Ischemic heart disease (in vivo): 11.1% | Myocardial infarction (in vivo): Myocardial infarction (1.3%) | Serious side effect, Cardiovascular (listed without frequency): Cardiac dysrhythmia | Asthenia (multiple myeloma): 21.9%; multiple myeloma, 24%), Confusional state (multiple | Atrial fibrillation, Grade 3/4 (multiple myeloma): 5% | Confusional state (multiple myeloma): 28% | Dizziness (multiple myeloma): 19.2%; multiple myeloma, 23%), Somnolence (erythema nodosum | Dry skin (multiple myeloma): Dermatologic: Dry skin (multiple myeloma, 21%), Rash (erythema | Dyspnea (multiple myeloma): Respiratory: Dyspnea (multiple myeloma, 42%), Pneumonia | Fever (multiple myeloma): 24% | Hypocalcemia (multiple myeloma): Endocrine metabolic: Hypocalcemia (multiple myeloma, 72%), | Indigestion (multiple myeloma): 11% | Leukopenia (multiple myeloma): multiple myeloma, 35%) | Muscle weakness (multiple myeloma): Musculoskeletal: Muscle weakness (multiple myeloma, 40%) | Peripheral edema (multiple myeloma): multiple myeloma, 34%) | Pneumonia (multiple myeloma): (multiple myeloma, 15%) | Somnolence (multiple myeloma): ≥ 3% | Tremor (multiple myeloma): 26%) | Weight loss (multiple myeloma): (multiple myeloma, 23%)

CN1CCc2nc(C(=O)N[C@@H]3C[C@@H](C(=O)N(C)C)CC[C@@H]3NC(=O)C(=O)Nc3ccc(Cl)cn3)sc2C1 [Edoxaban (Savaysa)]
Bleeding, Major (in vivo): 3.1%; DVT or pulmonary embolism, 1.4%) | Hemorrhagic cerebral infarction (in vivo): fibrillation, 0.3%), Intracranial hemorrhage (Nonvalvular atrial | Interstitial lung disease (in vivo): 0.2%) | Intracranial hemorrhage (in vivo): fibrillation, 0.5%; DVT or pulmonary embolism, 0.1%) | Liver function tests abnormal (in vivo): fibrillation, 4.8%; DVT or pulmonary embolism, 7.8%) | Rash (in vivo): Dermatologic: Rash (3.6% to 4.2%)

CCCC(CCC)C(=O)O.CCCC(CCC)C(=O)[O-].[Na+] [Divalproex (Depakote)]
Asthenia (in vivo): Neurologic: Asthenia (6% to 27%), Dizziness (up to 25%), Feeling | Backache (in vivo): 1% to less than 5%; migraine, 8%) | Common side effects, listed without incidence (in vivo): Ophthalmic: Amblyopia, Blurred vision, Diplopia (16%) | Diplopia (in vivo): Ophthalmic: Amblyopia, Blurred vision, Diplopia (16%) | Dizziness (in vivo): Neurologic: Asthenia (6% to 27%), Dizziness (up to 25%), Feeling | Feeling nervous (in vivo): nervous (up to 11%), Headache (31%), Insomnia (up to 15%), | Headache (in vivo): nervous (up to 11%), Headache (31%), Insomnia (up to 15%), | Indigestion (in vivo): 23%), Indigestion (8% to 11%), Loss of appetite (4% to 12%), | Infectious disease (in vivo): Other: Infectious disease (12% to 20%), Influenza (12%) | Influenza (in vivo): Other: Infectious disease (12% to 20%), Influenza (12%) | Insomnia (in vivo): nervous (up to 11%), Headache (31%), Insomnia (up to 15%), | Nausea (in vivo): Nausea (26% to 48%), Vomiting (15% to 27%) | Ototoxicity - deafness (in vivo): Otic: Ototoxicity - deafness (greater than 1% to less than 5%) | Palpitations (in vivo): Cardiovascular: Palpitations (greater than 1% to less than 5%), | Pancreatitis (in vivo): Gastrointestinal: Pancreatitis (greater than 1% to less than 5%) | Somnolence (in vivo): Somnolence (Adult, 7% to 30%; pediatric, greater than 5%), | Tachycardia (in vivo): Tachycardia (greater than 1% to less than 5%) | Thrombocytopenia, Dose-related (in vivo): Dose-related (1% to 27%) | Tremor (in vivo): Tremor (1% to 57%) | Vomiting (in vivo): Nausea (26% to 48%), Vomiting (15% to 27%)

CN1CCN(C(=O)O[C@H]2c3nccnc3C(=O)N2c2ccc(Cl)cn2)CC1 [Lunesta (eszopiclone)]
Angioedema (in vivo): Other: Angioedema (rare) | Disorder of taste (in vivo): Gastrointestinal: Disorder of taste (8% to 34%), Vomiting (3%) | Dizziness (in vivo): Neurologic: Dizziness (1% to 7%), Headache (13% to 21%), | Headache (in vivo): Neurologic: Dizziness (1% to 7%), Headache (13% to 21%), | Migraine (in vivo): Migraine (1% or greater) | Respiratory tract infection (in vivo): Respiratory: Respiratory tract infection (5% to 10%) | Vomiting (in vivo): Gastrointestinal: Disorder of taste (8% to 34%), Vomiting (3%)
